The record followed here is ChEMBL document CHEMBL3621154 (Medchemcomm, 2014).

By pIC50 is commonly meant −log10 of the IC50, conventionally taken in molar units.

In test [1] the target is T1, Amine oxidase [flavin-containing] B (Homo sapiens, UniProt P27338).
T1 sequence (P27338 whole entry): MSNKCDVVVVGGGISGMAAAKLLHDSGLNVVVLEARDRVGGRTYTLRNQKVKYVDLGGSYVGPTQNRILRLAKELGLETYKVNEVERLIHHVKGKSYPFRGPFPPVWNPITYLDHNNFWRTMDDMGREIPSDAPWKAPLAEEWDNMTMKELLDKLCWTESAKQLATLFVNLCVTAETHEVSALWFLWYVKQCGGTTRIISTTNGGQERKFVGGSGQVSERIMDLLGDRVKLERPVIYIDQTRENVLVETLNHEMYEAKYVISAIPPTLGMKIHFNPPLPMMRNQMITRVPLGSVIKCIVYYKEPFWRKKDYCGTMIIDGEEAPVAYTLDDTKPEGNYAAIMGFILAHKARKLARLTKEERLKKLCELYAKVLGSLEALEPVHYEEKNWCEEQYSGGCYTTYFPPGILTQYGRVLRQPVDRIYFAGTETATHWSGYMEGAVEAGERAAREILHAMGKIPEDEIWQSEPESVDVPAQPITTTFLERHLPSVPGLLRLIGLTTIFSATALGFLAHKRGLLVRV
Description: Inhibition of MAOB (unknown origin) by luminiscent assay

Test [2] addresses T2, Amine oxidase [flavin-containing] A (Homo sapiens, UniProt P21397).
T2 sequence (P21397 whole entry): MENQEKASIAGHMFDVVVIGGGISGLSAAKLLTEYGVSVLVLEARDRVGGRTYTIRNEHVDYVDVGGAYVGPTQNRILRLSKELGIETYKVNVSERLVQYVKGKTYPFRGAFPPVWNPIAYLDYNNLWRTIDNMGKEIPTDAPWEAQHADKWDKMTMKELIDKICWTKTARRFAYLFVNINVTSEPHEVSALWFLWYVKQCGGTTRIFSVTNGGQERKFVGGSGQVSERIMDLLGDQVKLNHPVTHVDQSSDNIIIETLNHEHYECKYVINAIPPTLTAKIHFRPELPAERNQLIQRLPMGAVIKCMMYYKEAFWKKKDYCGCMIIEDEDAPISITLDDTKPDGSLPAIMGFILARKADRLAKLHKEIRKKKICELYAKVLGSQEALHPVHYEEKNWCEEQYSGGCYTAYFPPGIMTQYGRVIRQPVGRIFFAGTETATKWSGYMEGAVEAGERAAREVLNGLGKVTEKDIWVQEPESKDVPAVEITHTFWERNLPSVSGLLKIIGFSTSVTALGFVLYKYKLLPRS
Description: Inhibition of MAOA (unknown origin) by luminiscent assay

Each structure is given as a SMILES string. pIC50: −log10 of the molar value.

Regarding `COc1ccccc1CNc1n[nH]c(NCc2ccccc2OC)n1`, the negative-log IC50 (pIC50) in test [1] and in test [2] was below 4.00 each time.
Take `Nc1nnc(NCc2c(Cl)cccc2Oc2ccccc2)[nH]1`: the pIC50 in test [1] and in test [2] was below 4.00 each time.
